Experimental data published in PubChem BioAssay (NCI).
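How tested: cells in 96-well plates exposed to compound for 48 hours at five concentrations. GI50 = concentration required for 50% inhibition of growth. Definition used: TGI = concentration required for complete inhibition of growth.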

Tests used:
Test in all cases: NCI anticancer screen, dose series, 48 h
UO-31 renal = system: UO-31 renal
K-562 leukemia = system: K-562 leukemia
OVCAR-4 ovarian = system: OVCAR-4 ovarian
SF-295 CNS = system: SF-295 CNS
MDA-MB-435 = system: MDA-MB-435
CAKI-1 renal = system: CAKI-1 renal
COLO 205 colon = system: COLO 205 colon
SF-539 CNS = system: SF-539 CNS
NCI-H460 lung = system: NCI-H460 lung
MDA-MB-231 breast = system: MDA-MB-231 breast
OVCAR-3 ovarian = system: OVCAR-3 ovarian
SR leukemia = system: SR leukemia
A498 renal = system: A498 renal
A549 NSCLC = system: A549 NSCLC
NCI-H226 lung = system: NCI-H226 lung
HOP-62 NSCLC = system: HOP-62 NSCLC
SF-268 CNS = system: SF-268 CNS
MOLT-4 leukemia = system: MOLT-4 leukemia

SMILES	TGI (UO-31 renal)	TGI (K-562 leukemia)	TGI (OVCAR-4 ovarian)	TGI (SF-295 CNS)	TGI (MDA-MB-435)	TGI (CAKI-1 renal)	TGI (COLO 205 colon)	TGI (SF-539 CNS)	TGI (NCI-H460 lung)	TGI (MDA-MB-231 breast)	TGI (OVCAR-3 ovarian)	TGI (SR leukemia)	TGI (A498 renal)	TGI (A549 NSCLC)	TGI (NCI-H226 lung)	TGI (HOP-62 NSCLC)	TGI (SF-268 CNS)	TGI (MOLT-4 leukemia)	GI50 (NCI-H226 lung)	GI50 (SF-268 CNS)
CC1OC(OC2C[C@](O)(C(=O)CBr)Cc3c(O)c4c(c(O)c32)C(=O)c2ccccc2C4=O)C(F)C(O)C1O (stereo partly specified)	8.9 µM	> 38.8 µM	97.9 µM	27.5 µM	31.2 µM	49 µM	28.8 µM	30.4 µM	48.6 µM	25.2 µM	42.9 µM	3.79 µM	30.9 µM	30 µM	36.4 µM	66 µM	73.7 µM			
CSS(C)(=O)=O	52.1 µM	78.6 µM	64.3 µM	54.5 µM	44.3 µM	43.2 µM	40.1 µM	37 µM	> 100 µM	> 100 µM	41.6 µM	38.6 µM	> 100 µM	> 100 µM	43.5 µM	> 100 µM	96.9 µM	10.1 µM		
COc1ccc(-c2c3c(nc4[nH]c(=S)[nH]c(=S)c24)CCCC3)cc1OC	> 100 µM	> 100 µM	> 100 µM	38.8 µM	> 100 µM	> 100 µM	> 100 µM	28.6 µM	42.9 µM	> 100 µM	> 100 µM	> 100 µM		59 µM		> 100 µM	> 100 µM	61.2 µM		
CC(=O)OCc1nnn2c1CCC2	> 100 µM	> 100 µM	> 100 µM	> 100 µM				> 100 µM	> 100 µM		> 100 µM	> 100 µM		> 100 µM		> 100 µM		> 100 µM		
COc1ccc(OCC(C)(C)O)cc1	> 100 µM	> 100 µM	> 100 µM	> 100 µM		> 100 µM	> 100 µM	> 100 µM	> 100 µM		> 100 µM		> 100 µM	> 100 µM	> 100 µM	> 100 µM	> 100 µM	> 100 µM		
CCCCCCC(=O)c1ccc2ccccc2c1O	> 100 µM	> 100 µM	> 100 µM	> 100 µM	> 100 µM	95.4 µM	> 100 µM	> 100 µM	> 100 µM	> 100 µM		> 100 µM	> 100 µM		> 100 µM	> 100 µM	> 100 µM	> 100 µM		
COc1c2occc2cc2ccc(=O)oc12	> 100 µM	> 100 µM	> 100 µM	> 100 µM	> 100 µM	> 100 µM	> 100 µM	> 100 µM	> 100 µM	> 100 µM	> 100 µM	> 100 µM	> 100 µM	> 100 µM	> 100 µM	> 100 µM	> 100 µM	> 100 µM	> 100 µM	> 100 µM
N[C@@H](Cc1ccc2oc3cc(=O)c4ccccc4c-3nc2c1)C(=O)O	> 100 µM	> 100 µM	> 100 µM	64 µM	31.7 µM	> 100 µM	38.9 µM	> 100 µM	> 100 µM	> 100 µM	> 100 µM	60.4 µM	> 100 µM	> 100 µM	> 100 µM	48.2 µM	> 100 µM	> 100 µM		
C=CCOC1OC(CS(=O)(=O)O)C(OC(C)=O)C(OC(C)=O)C1OC(C)=O (stereo unspecified)	> 100 µM	> 100 µM	> 100 µM	> 100 µM	> 100 µM	> 100 µM	> 100 µM		> 100 µM		> 100 µM	> 100 µM	> 100 µM		> 100 µM	> 100 µM		> 100 µM		
CCOC(=O)/C=C/c1c[nH]c(=O)[nH]c1=O	> 75 µM	> 75 µM	> 75 µM	> 75 µM		> 75 µM	> 75 µM	> 75 µM	> 75 µM		> 75 µM		> 75 µM	> 75 µM	> 75 µM	> 75 µM	> 75 µM	> 48.7 µM		
c1ccc(N2N=C3N(c4ccccc4)C2N3c2ccccc2)cc1	> 100 µM	59.5 µM	> 100 µM	> 100 µM	31.6 µM	> 100 µM	49.1 µM	74.9 µM	> 100 µM	> 100 µM	> 100 µM		> 100 µM	> 100 µM		> 100 µM	> 100 µM	62.5 µM		
